{"source": "paper PMC8400257", "about": "“2-Phenoxy-3-Trichloromethylquinoxalines Are Antiplasmodial Derivatives with Activity against the Apicoplast of Plasmodium falciparum” (Pharmaceuticals, 2021)", "key": {"[1]": {"tested_on": "Plasmodium falciparum blood stage parasites", "assay": "Growth assay over three life cycles (delayed death)", "type": "cell-based", "conditions": "0.2 µM; 48, 96, 144 h", "procedure": "To determine the impact of (3i) on apicoplast biogenesis, parasites were treated for 48 h with 0.2 µM of (3i) or 0.2 µM of (2i) (a control of (3i) for which the active CCl3 was replaced by a methyl CH3 group) and compared to untreated parasites by immunofluorescence assay. […] In order to determine if the apicoplast is the main target of (3i), we performed a growth assay over three life cycles to assess a potential delayed death effect, one of the major signature for compounds affecting apicoplast. […] The second interpretation could be that, unlike chloramphenicol or doxycycline, which cause a delayed death phenotype on Plasmodium, (3i) could act like fosmidomycin or actinonin and cause a rapid death phenotype.\nTo observe a potential effect of delayed death of the molecule on the parasite, Plasmodium was maintained on three life cycles (48 h). […] Fluorescence from each well was measured with TECAN infinite M200 plate reader (excitation: 485 nm, emission: 538 nm and integration time: 1000 μs). […] A graph was obtained by performing the ration of the treated culture fluorescence intensity on the untreated culture fluorescence intensity (n = 3)."}, "[2]": {"tested_on": "quiescent ART-resistant F32-ART5 parasites", "assay": "Quiescent-stage survival assay (QSA)", "type": "cell-based, Plasmodium falciparum", "conditions": "F32-ART5, DHA 700 nM 6 h then DHA + 3i 2.5 or 5 µM 48 h", "procedure": "Chemosensitivity evaluation of ART-resistant parasites at the quiescent stage was performed on the strain F32-ART5 thanks to the quiescent-stage survival assay (QSA). D-sorbitol synchronized ring-stages parasites at 3% parasitemia (2% hematocrit) were first exposed to 700 nM of dihydroartemisinin (DHA) for 6 h to induce quiescence of artemisinin-resistant parasites. Then, quiescent parasites were exposed or not (as control condition) to the drug to be tested for 48 h. After drug exposure, parasite cultures were washed with RPMI-1640 medium and replaced in normal drug-free culture conditions. The time to parasite recrudescence was determined as the time required to reach the 3% initial parasitemia. […] In each experiment, results obtained with the condition “DHA 6 h/DHA 48 h” were compared to those obtained with the condition “DHA 6 h/(DHA + drug to be tested) 48 h” in order to determine the delay in recrudescence time. […]\n3. Studying the effect of (3i) on the liver stage development of P. falciparum Cryopreserved primary human hepatocytes were seeded in 96 well plates with a pre-determined seeding dose that gave a single dense layer of attached hepatocytes. […]\nThe culture medium with or without drugs was refreshed every 48 hours and two independent plates were studied. […] Plates were subjected to quantification using an automated plate scanner. […]"}}, "data": [{"smiles": "O=[N+]([O-])c1ccc(Oc2nc3ccccc3nc2C(Cl)(Cl)Cl)cc1", "note": "[3i, 2-(4-Nitrophenoxy)-3-trichloromethylquinoxaline]", "values": [{"measurement": "Parasite growth over three life cycles (ratio treated/untreated)", "setting": "[1]", "value": "drastic reduction in the parasite growth within the first life cycle"}, {"measurement": "Activity on quiescent ART-resistant parasites (delay in recrudescence time, QSA)", "setting": "[2]", "value": "did not present any activity"}]}]}
